Measurements published in patent publication US20160287524A1, “PHARMACEUTICAL COMPOSITIONS COMPRISING AN ACTIVE AGENT” (GALENICUM HEALTH S.L., priority 2013, published 2016).

Assay: Dissolving the active agent in the capsule fill (glycerol monocaprylocaprate, BHT)
Type: physicochemical
Conditions: 20-23° C., stirred
Description: Another advantage of the process as herein disclosed is that it is highly reproducible and robust independently of the water content of the active agent. […] However, when the active agent has a water content higher than 0.05% measured by Karl Fischer titration, the components of the fill are completely dissolved at the same range of temperatures. Furthermore, the inventors have been able to establish an optimum range of working temperatures able to obtain a fill solution completely dissolved homogeneously with active agents with a water content higher than 0.05% w/w.
• Glycerol monocaprylocaprate was added to a stainless steel tank equipped with cooling jacket to keep it at a temperature of 20-23° C. It was stirred until completely dissolved. • Butylhydroxytoluene (BHT) was added to the tank and stirred until completely dissolved. • Finally dutasteride anhydrous was added to the tank. • The resulting solution was kept at a range of temperature of 20-23° C. […] Water content of the active agent and the range of temperatures were studied to avoid dissolution problems.

For C[C@]12C=CC(=O)N[C@@H]1CC[C@@H]1[C@@H]2CC[C@]2(C)[C@@H](C(=O)Nc3cc(C(F)(F)F)ccc3C(F)(F)F)CC[C@@H]12 [dutasteride anhydrous], the “dissolution of active agent in the fill solution” value was “not possible to obtain a completely dissolved solution”.
